Source: PubChem BioAssay (NCI)
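The compound was tested at five concentrations on cells cultured in 96-well plates, with a 48-hour exposure period. The concentration for 50% growth inhibition is given as GI50. The concentration for full growth arrest is given as TGI.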

Assays:
Test in all cases: DTP human tumour cell line panel, 48 h
MDA-MB-435 = system: MDA-MB-435
HOP-92 NSCLC = system: HOP-92 NSCLC
KM12 colon = system: KM12 colon
OVCAR-3 ovarian = system: OVCAR-3 ovarian
NCI-H226 lung = system: NCI-H226 lung
SF-295 CNS = system: SF-295 CNS
CAKI-1 renal = system: CAKI-1 renal
K-562 leukemia = system: K-562 leukemia
HCC-2998 colon = system: HCC-2998 colon
U251 CNS = system: U251 CNS

| SMILES | TGI (MDA-MB-435) [µM] | TGI (HOP-92 NSCLC) [µM] | TGI (KM12 colon) [µM] | TGI (OVCAR-3 ovarian) [µM] | TGI (NCI-H226 lung) [µM] | TGI (SF-295 CNS) [µM] | TGI (CAKI-1 renal) [µM] | TGI (K-562 leukemia) [µM] | TGI (HCC-2998 colon) [µM] | TGI (U251 CNS) [µM] | GI50 (MDA-MB-435) [nM] | GI50 (HOP-92 NSCLC) [nM] | GI50 (KM12 colon) [nM] | GI50 (OVCAR-3 ovarian) [nM] | GI50 (NCI-H226 lung) [nM] | GI50 (SF-295 CNS) [µM] | GI50 (CAKI-1 renal) [nM] | GI50 (K-562 leukemia) [nM] | GI50 (HCC-2998 colon) [nM] | GI50 (U251 CNS) [nM] |
| --- | --- | --- | --- | --- | --- | --- | --- | --- | --- | --- | --- | --- | --- | --- | --- | --- | --- | --- | --- | --- |
| CC1(C)COC2=C(C1)C(=O)c1ccccc1C2=O | 0.338 | 3.85 | 3.23 | 2.06 | 4.8 | 3 | 3.9 | 1.52 | 3.08 | 2.78 | – | – | – | – | – | – | – | – | – | – |
| COC(=O)C1OC(O[C@H]2CC[C@]3(C)[C@H]4CC=C5[C@@H]6CC(C)(C)CC[C@]6(C(=O)OC6OCC(O)C(O)C6OC6OC(C)C(OC7OCC(O)C(O)C7O)C(OC7OCC(O)(CO)C7O)C6O)[C@H](O)C[C@@]5(C)[C@]4(C)CC[C@H]3C2(C)C)C(O)C(O)C1O (stereo not given in full) | 3.7 | 3.94 | 9.49 | 23.2 | 15.5 | 15.9 | 17.5 | > 100 | 3.79 | 19.3 | – | – | – | – | – | – | – | – | – | – |
| O=C(SCc1cccc2ccccc12)c1ccc(Cl)cc1 | > 100 | > 100 | > 100 | > 100 | > 100 | > 100 | > 100 | > 100 | > 100 | > 100 | – | – | – | – | – | – | – | – | – | – |
| CCCCCCCCCCCCCCCCNc1ccn(C2CC(O)C(COC(c3ccccc3)(c3ccccc3)c3ccc(OC)cc3)O2)c(=O)n1 (stereo not given) | > 100 | > 100 | > 100 | > 100 | > 100 | > 100 | > 100 | > 100 | > 100 | > 100 | – | – | – | – | – | – | – | – | – | – |
| CCOC(=O)c1c(SC(=O)c2ccc(OC)cc2)n(-c2ccccc2)c(=S)n(-c2ccccc2)c1=O | > 100 | > 100 | > 100 | > 100 | > 100 | > 100 | > 100 | > 100 | > 100 | > 100 | – | – | – | – | – | – | – | – | – | – |
| COc1nc2ccc(COc3ccc(C(=O)O)cc3)cc2nc1OC | > 100 | > 100 | > 100 | > 100 | > 100 | > 100 | > 100 | > 100 | > 100 | > 100 | – | – | – | – | – | – | – | – | – | – |
| CCCCCCCCCCCCCC[n+]1ccc(C)cc1 | 2.16 | 3.3 | 0.802 | 1.28 | 5.59 | 17.8 | 2.66 | 3.73 | 2.04 | 1.65 | 638 | 577 | 281 | 351 | 915 | 3.25 | 933 | 309 | 708 | 437 |
